Test results taken from article PMC11721939, “Novel tetrahydronaphthalen-1-yl-phenethyl ureas: synthesis and dual antibacterial-anticancer activities” (Journal of Enzyme Inhibition and Medicinal Chemistry, 2023).
Values after ≈ are worked out from the molar mass of the structure shown. Read-outs that look alike come from different tables or passages of the source.

What was measured:
[1] = tested on: Acinetobacter baumannii ATCC 1605; assay: Disc diffusion method; type: cell-based; settings: for zone of inhibition at 250 µM: ATCC1605, 250 µM; for zone of inhibition at 250 µM / zone of inhibition at 500 µM / zone of inhibition at 1000 µM: read-out: Disc diffusion test, inhibitory zone diameter; for zone of inhibition at 500 µM: ATCC1605, 500 µM; for zone of inhibition at 1000 µM: ATCC1605, 1000 µM
Method: (§1) The bacteria employed for evaluation included Acinetobacter baumannii ATCC 1605, Enterococcus faecalis ATCC 49452, Pseudomonas aeruginosa ATCC 9027, and Staphylococcus aureus MRSA ATCC 43300. These strains were sourced from the Molecular Biology and Genetics Laboratory at Erzurum Technical University. They were immersed in Mueller-Hinton Broth (MHB) and then incubated at a temperature of 37 °C for a duration of 16–24 h.
(§2) Bacteria were adjusted to a McFarland standardisation of 0.5, equivalent to a cell density of 1.5 × 10^8/ml, and were then introduced into MHB. Subsequently, a 100 μl volume of this bacterial mixture was spread onto Mueller-Hinton agar plates. Sterile empty discs were then treated with the formulated ureas at concentrations of 1000, 500, and 250 µM. Oflaxin ([…]) and netilmicin ([…]) were used as positive controls, while DMSO served as the negative control. The plates were then placed in an incubator at 37 °C for a period ranging from 24 to 72 h, depending on the optimal conditions. Post incubation, the diameter of the inhibition zones was gauged to determine the antibacterial efficacy. This entire process was replicated three times.

[2] = tested on: Enterococcus faecalis ATCC 49452; assay: Disc diffusion method; type: cell-based; settings: for zone of inhibition at 500 µM: ATCC49452, 500 µM; for zone of inhibition at 1000 µM: ATCC49452, 1000 µM
Method: as §1, §2

[3] = tested on: Pseudomonas aeruginosa ATCC 9027; assay: Disc diffusion method; type: cell-based; settings: for zone of inhibition at 250 µM: ATCC9027, 250 µM; for zone of inhibition at 250 µM / zone of inhibition at 500 µM / zone of inhibition at 1000 µM: read-out: Disc diffusion test, inhibitory zone diameter; for zone of inhibition at 500 µM: ATCC9027, 500 µM; for zone of inhibition at 1000 µM: ATCC9027, 1000 µM
Method: as §1, §2

[4] = tested on: Staphylococcus aureus MRSA ATCC 43300; assay: Disc diffusion method; type: cell-based; settings: for zone of inhibition at 250 µM / zone of inhibition at 500 µM / zone of inhibition at 1000 µM: Staphylococcus aureus, read-out: Disc diffusion test, inhibitory zone diameter; for Standard antibiotic disc, inhibitory zone diameter: Staphylococcus aureus MRSA
Method: as §1, §2

[5] = tested on: Acinetobacter baumannii ATCC 1605; assay: Micro-well dilution assay (MIC); type: cell-based; settings: for MIC: ATCC1605
Method: as §1
(§3) The synthesised ureas’ minimum inhibitory concentrations (MICs) against the bacterial samples were ascertained using the microdilution broth technique. Utilising a method of twofold serial dilutions, the ureas were diluted to concentrations spanning from […]. The bacterial turbidity was set to match the 0.5 McFarland standard. In the 96-well plates, each well received 100 μl of MHB and 5 μl of the bacteria being tested. For the negative control, 195 μl of MHB and 5 μl of the bacterial sample were added. The plate was then covered with a sterile seal and allowed to incubate for 24 h at a temperature of 37 °C. Post incubation, the growth of the bacteria was assessed at 600 nm using the Fluoroskan Ascent® FL. The MIC represented the smallest amount of the chemical that effectively halted bacterial growth. This procedure was conducted three times.

[6] = tested on: Enterococcus faecalis ATCC 49452; assay: Micro-well dilution assay (MIC); type: cell-based; settings: for MIC: ATCC49452
Method: as §1, §3

[7] = tested on: Pseudomonas aeruginosa ATCC 9027; assay: Micro-well dilution assay (MIC); type: cell-based; settings: for MIC: ATCC9027
Method: as §1, §3

[8] = tested on: Staphylococcus aureus MRSA ATCC 43300; assay: Micro-well dilution assay (MIC); type: cell-based
Method: as §1, §3

HeLa cells [9] = assay: WST-8 cytotoxicity assay; type: cell-based, human; settings: for IC50: Homo sapiens, HeLa cells, 48 h, WST-8, n = 4, read-out: Cytotoxic activity IC50; for SI value (HeLa cells): IC50 PCS-201-012 fibroblasts / IC50 HeLa, n = 4
Method: (§4) The cells in culture were frequently sub-cultured, about 2–3 times weekly, until they reached a confluence of 80–90%. The experiments were organised into seven cell groups as follows: group I served as the control, while groups II through VII were pre-treated with varying dosages of the synthesised ureas (ranging from 12.5 µM to 500 µM). The cytotoxic potential of these ureas was assessed in vitro using the Cell Viability Detection Kit-8 (CVDK-8, Ecotech Biotechnology, Erzurum, Turkey), a method based on WST-8 quantification for human primary dermal fibroblasts and cervical cancer cells. Healthy fibroblast, HeLa, and SH-SY5Y cells were allocated in 96-well plates, with each well containing 5 × 10^3 cells in 100 µL of DMEM:F12 (supplemented with 1% penicillin/streptomycin and 10% FBS). After an overnight growth, these cells were exposed to specified concentrations of the synthesised ureas for a duration of 48 h at 37 °C in a 5% CO2 atmosphere. Cisplatin acted as the positive control with concentration gradients of 0–250 µM for HeLa cells and 0–20 µM for the SH-SY5Y cells. Post incubation, in sterile, dimly lit conditions, 10% WST-8 solution was added to every well and further incubated at 37 °C within 5% CO2 for another 3–4 h. The optical density of the 96-well plate was gauged at a 450 nm wavelength using a spectrophotometer (BioTek, EPOCH, Santa Clara, CA). The control group’s main purpose was to measure the absorbance of just the cells and the growth medium.

SH-SY5Y cells [10] = assay: WST-8 cytotoxicity assay; type: cell-based, human; settings: for IC50: SH-SY5Y, 48 h, WST-8, n = 4, read-out: Cytotoxic activity IC50; for SI value (SH-SY5Y cells): IC50 PCS-201-012 fibroblasts / IC50 SH-SY5Y, n = 4
Method: as §4

WST-8 cytotoxicity assay [11] = type: cell-based; settings: human, PCS-201-012 healthy primary dermal fibroblast cells, PCS-201-012 healthy fibroblast cells, WST-8, n = 4, read-out: Cytotoxic activity IC50
Method: as §4

WST-8 cytotoxicity assay [12] = type: cell-based, human; settings: human, SH-SY5Y cells, SH-SY5Y, 48 h, read-out: Cell viability
Method: as §4

[13] = tested on: all tested bacterial strains; assay: Antibacterial activity (MIC) summarised over all tested bacterial strains; type: cell-based; settings: against the studied bacteria
Method: as §1
as §2, with “This entire process was replicated three times.” left out
The synthesised ureas’ minimum inhibitory concentrations (MICs) against the bacterial samples were ascertained using the microdilution broth technique. […] Post incubation, the growth of the bacteria was assessed at 600 nm using the Fluoroskan Ascent® FL. […]

PCS-201-012 cells = tested on: PCS-201-012 cells; parameters: method as in PMID 27488500; settings: fibroblast cells (PCS-201-012 column), cisplatin; read-out: Cytotoxic activity IC50; cited from earlier work
SH-SY5Y cells [14] = settings: cited from earlier work
HeLa cells [15] = settings: cited from earlier work
[16] = read-out: Disc diffusion test, inhibitory zone diameter
[17] = read-out: Cytotoxic activity IC50, cisplatin positive control
[18] = read-out: Cytotoxic activity IC50, melphalan control

SMILES	zone of inhibition at 250 µM [1]	zone of inhibition at 500 µM [1]	zone of inhibition at 1000 µM [1]	zone of inhibition at 500 µM [2, 16]	zone of inhibition at 1000 µM [2, 16]	zone of inhibition at 250 µM [3]	zone of inhibition at 500 µM [3]	zone of inhibition at 1000 µM [3]	zone of inhibition at 250 µM [4]	zone of inhibition at 500 µM [4]	zone of inhibition at 1000 µM [4]	MIC [5]	MIC [7]	MIC [8]	IC50 (HeLa cells [9])	SI value (HeLa cells) (HeLa cells [9])	IC50 (SH-SY5Y cells [10]; Homo sapiens)	SI value (SH-SY5Y cells) (SH-SY5Y cells [10])	IC50 at 48 h (WST-8 cytotoxicity assay [11])	melting point	other results
COc1cccc(CCNC(=O)NC2CCCc3c(OC)cccc32)c1 (stereo not shown) [Compound 16, 1-(5-Methoxy-1,2,3,4-tetrahydronaphthalen-1-yl)-3-(3-methoxyphenethyl)urea]	5 mm	10 mm	13 mm	6 mm	7 mm	7 mm	8 mm	10 mm	5 mm	6 mm	13 mm	7.81 µM (≈ 2.77 µg/mL)	7.81 µM (≈ 2.77 µg/mL)	7.81 µM (≈ 2.77 µg/mL)	32.4 µM	15.4	19.1 µM	26.10	> 500 µM	155 to 157 °C	MIC [6]: 3.9 µM (≈ 1.38 µg/mL)
COc1ccccc1CCNC(=O)NC1CCCc2c(OC)cccc21 (stereo not shown) [Compound 15, 1-(5-Methoxy-1,2,3,4-tetrahydronaphthalen-1-yl)-3-(2-methoxyphenethyl)urea]	–	–	–	–	–	5 mm	5 mm	5 mm	–	5 mm	6 mm	–	15.6 µM (≈ 5.54 µg/mL)	15.6 µM (≈ 5.54 µg/mL)	142 µM	1.58	8.93 µM	25.26	226 µM	174 to 176 °C	IC50 (SH-SY5Y cells [10]): 8.9 µM
COc1ccc(CCNC(=O)NC2CCCc3c(OC)cccc32)cc1 (stereo not shown) [Compound 18, 1-(5-Methoxy-1,2,3,4-tetrahydronaphthalen-1-yl)-3-(4-methoxyphenethyl)urea]	6 mm	10 mm	16 mm	7 mm	13 mm	9 mm	10 mm	15 mm	5 mm	12 mm	15 mm	7.81 µM (≈ 2.77 µg/mL)	3.9 µM (≈ 1.38 µg/mL)	3.9 µM (≈ 1.38 µg/mL)	364 µM	1.02	10.2 µM	36.72	374 µM	150 to 152 °C	zone of inhibition at 250 µM ([2]; ATCC49452, 250 µM, read-out: Disc diffusion test, inhibitory zone diameter): 5 mm; MIC [6]: 0.97 µM (≈ 0.344 µg/mL)
COc1cccc2c1CCCC2NC(=O)NCCc1ccccc1 (stereo not shown) [Compound 14, 1-(5-methoxy-1,2,3,4-tetrahydronaphthalen-1-yl)-3-phenethylurea]	–	–	–	–	–	–	–	–	–	–	–	–	–	–	2.6 µM	–	9.7 µM	–	7.9 µM	–	viability at 48 h, 12.5 µM (WST-8 cytotoxicity assay [12]; 12.5 µM): 25.5%; viability at 48 h, 25 µM (WST-8 cytotoxicity assay [12]; 25 µM): 8.4%; viability at 48 h, 50 µM (WST-8 cytotoxicity assay [12]; 50 µM): 4.68%; viability at 48 h, 100 µM (WST-8 cytotoxicity assay [12]; 100 µM): 4.87%; viability at 48 h, 300 µM (WST-8 cytotoxicity assay [12]; 300 µM): 3.77%; viability at 48 h, 500 µM (WST-8 cytotoxicity assay [12]; 500 µM): 1.67%; Antibacterial properties (in words) [13]: did not display any antibacterial properties
COc1ccc(CCNC(=O)NC2CCCc3c(OC)cccc32)cc1OC (stereo not shown) [Compound 17, 1-(3,4-Dimethoxyphenethyl)-3-(5-methoxy-1,2,3,4-tetrahydronaphthalen-1-yl)urea]	6 mm	8 mm	15 mm	7 mm	10 mm	7 mm	10 mm	10 mm	8 mm	13 mm	14 mm	7.81 µM (≈ 3 µg/mL)	7.81 µM (≈ 3 µg/mL)	7.81 µM (≈ 3 µg/mL)	251 µM	1.51	9.7 µM	39.08	380 µM	168 to 170 °C	MIC [6]: 0.97 µM (≈ 0.373 µg/mL)
N.N.[Cl][Pt][Cl] [Cisplatin, cis-diammineplatinum(II) dichloride]	–	–	–	–	–	–	–	–	–	–	–	–	–	–	–	–	–	–	–	–	IC50 (PCS-201-012 cells): > 100 µM; IC50 (SH-SY5Y cells [14]; [17]): 10 µM; IC50 (HeLa cells [15]; [17]): > 50 µM
N[C@@H](Cc1ccc(N(CCCl)CCCl)cc1)C(=O)O [Melphalan, melphalan]	–	–	–	–	–	–	–	–	–	–	–	–	–	–	–	–	–	–	–	–	IC50 (SH-SY5Y cells [14]; [18]): 2.2 µM; IC50 (HeLa cells [15]; [18]): 61 µM
CCN[C@@H]1C[C@H](N)[C@@H](O[C@H]2OC(CN)=CC[C@H]2N)[C@H](O)[C@H]1O[C@H]1OC[C@](C)(O)[C@H](NC)[C@H]1O [NET30, netilmycin, reference compound]	–	–	–	–	–	–	–	–	–	–	–	–	–	–	–	–	–	–	–	–	Standard antibiotic disc, inhibitory zone diameter ([1]; 30 μg/disc): 13 mm; Standard antibiotic disc, inhibitory zone diameter ([2]; 30 μg/disc): 9 mm; Standard antibiotic disc, inhibitory zone diameter ([3]; 30 μg/disc): 16 mm; Standard antibiotic disc, inhibitory zone diameter ([4]; 30 μg/disc): 21 mm; MIC of standard antibiotics [5]: 4 µg/mL; MIC of standard antibiotics [6]: 32 µg/mL; MIC of standard antibiotics [7]: 4 µg/mL; MIC of standard antibiotics [8]: 0.8 µg/mL
CC1COc2c(N3CCN(C)CC3)c(F)cc3c(=O)c(C(=O)O)cn1c23 (stereo not shown) [OFX, ofloxacin, reference compound]	–	–	–	–	–	–	–	–	–	–	–	–	–	–	–	–	–	–	–	–	Standard antibiotic disc, inhibitory zone diameter ([1]; 10 μg/disc): 16 mm; Standard antibiotic disc, inhibitory zone diameter ([2]; 10 μg/disc): 11 mm; Standard antibiotic disc, inhibitory zone diameter ([3]; 10 μg/disc): 23 mm; Standard antibiotic disc, inhibitory zone diameter ([4]; 10 μg/disc): 24 mm; MIC of standard antibiotics [5]: 0.5 µg/mL; MIC of standard antibiotics [6]: 2.5 µg/mL; MIC of standard antibiotics [7]: 11.4 µg/mL; MIC of standard antibiotics [8]: 1.2 µg/mL
